This is an account of results in publication PMC3968228 (Cancer chemotherapy and pharmacology, 2014).

For data set [1] the following is noted: for elimination pattern of docetaxel concentration-time profile: docetaxel 20 mg/kg i.v., male FVB mice.
For data set [2] the following is noted: with ritonavir; cited from earlier work.
For data set [3] the following is noted: three new patients on ritonavir-based cART, docetaxel 70 to 100 mg/m^2; cited from earlier work.
Setting [4] is: male, FVB, mouse, plasma, iv, 20 mg/kg.

For the compound `O=C1Nc2ccc(Cl)cc2[C@@](C#CC2CC2)(C(F)(F)F)O1` [efavirenz, Efavirenz], the “effect on docetaxel exposure (AUC)” value in data set [1] (CYP3A4 inducers p.o. x4d before docetaxel 20 mg/kg i.v.) is recorded as “did not have a significant effect”. Besides, the “elimination pattern of docetaxel concentration-time profile” value (“elimination pattern” below) in data set [1] (plasma) was “triphasic”.
In the case of `CC(C)c1nc(CN(C)C(=O)N[C@H](C(=O)N[C@@H](Cc2ccccc2)C[C@H](O)[C@H](Cc2ccccc2)NC(=O)OCc2cncs2)C(C)C)cs1` [ritonavir, Ritonavir], the “oral bioavailability of docetaxel” value in data set [2] is listed as 130-160 % of control.
In the case of `CC(=O)O[C@@]12CO[C@@H]1C[C@H](O)[C@@]1(C)C(=O)[C@H](O)C3=C(C)[C@@H](OC(=O)[C@H](O)[C@@H](NC(=O)OC(C)(C)C)c4ccccc4)C[C@@](O)([C@@H](OC(=O)c4ccccc4)[C@H]21)C3(C)C` [Docetaxel], the toxicity entry in data set [3] is listed as “severe toxicities”. Moreover, in data set [1] (plasma), the “elimination pattern” value was “triphasic”. Also, in data set [1] (setting [4]), the AUC(0-inf) was found to be 10300 ng·h/mL, the highest concentration (Cmax) was 18100 ± 2200 ng/mL, the clearance was 32.2 mL/min/kg and the concentration at 24 hr amounted to 9 ± 0.7 ng/mL.
On to `CC(=O)N1CCN(c2ccc(OCC3COC(Cn4ccnc4)(c4ccc(Cl)cc4Cl)O3)cc2)CC1` (stereo not shown) [ketoconazole, Ketoconazole], for which the “elimination pattern” value in data set [1] (plasma) was “biphasic”.

The term AUC(0-inf) denotes the area under the concentration-time curve extrapolated to infinity. Broadly, the Cmax is the maximum level reached in the sampled fluid or tissue. Usually clearance stands for the rate of elimination divided by the concentration. Read a low clearance as inefficient removal.
